{"source": "patent US12594257B2", "about": "“Means and methods for improving anti-tumoral efficacy of transmembrane channel protein blockers” (ARDAN PHARMA S.A.S., priority 2021, dated 2026)", "key": {"CD11c+ splenic DCs": {"system": "CD11c+ splenic DCs", "assay": "Antigen cross-presentation assay in mouse splenic dendritic cells (B3Z T cell activation, β-galactosidase readout)", "type": "cell-based", "description": "Antigen cross-presentation assays in mouse splenic dendritic cells: To obtain splenic DCs, spleen of C57BL/6 mice was extracted, cut into small pieces and treated with collagenase-D (Roche, Merck). After 30 minutes of incubation at 37° C., the enzymatic reaction was stopped with a 10 mM EDTA solution. Lysis of red blood cells was performed with an ammonium chloride solution. Finally, cells were washed with PBS/SFB1%. […] Briefly, splenic cells were labeled with anti-CD11c antibodies conjugated to the beads. The cells were allowed to pass through a magnetic column subjected to a magnetic field. Thereby, CD11c^+ cells were retained on the column. […]\nCD11c^+ spleen cells were incubated with 3 mg/mL of soluble OVA, or OVA plus 20 μM of free (+)-BayK8644, 20 μM of (+)-BayK8644 encapsulated into chitosan nanoparticles (NP-BayK8644) or empty counterpart (eNP) for 4 hours in supplemented-RPMI medium. […] The activation of B3Z cell line was measured detecting β-galactosidase activity by optical density (absorbance at 595-655 nm) using chlorophenol red-β-D-galactopyranoside (CPRG; Roche) as substrate for the reaction.\n(+)-BayK8644 inhibits antigen cross-presentation by splenic DCs in vitro: We first studied whether (+)-BayK8644 inhibits antigen cross-presentation in vitro. […] B3Z T cell activation was measured by assessing β-galactosidase activity in a colorimetric assay. […]"}, "E.G7-OVA thymic lymphoma": {"system": "E.G7-OVA thymic lymphoma", "assay": "Therapeutic treatment of established E.G7-OVA tumors, intratumoral injection", "type": "in vivo, mouse", "settings": "WT mice, established EG7 tumors, i.t. 70 nmoles every two days, five injections; vs eNPs or vehicle", "description": "Tumor Models and Treatments: WT and Tmem176b^−/− C57BL/6 mice were injected s.c with 0.5×10^6 E.G7-OVA thymic lymphoma cells. At the indicated experiment, injection was performed alternating one Tmem176b and one Tmem176b^−/− mouse until completing both groups. In treated animals, alternation was done between (+)-BayK8644- and vehicle-treated animals or NP-BayK8644 and eNP-treated animals. Tumor growth was caliper measured manually every 2-3 days, and the two major diameters were taken. 70 nmoles of free (+)-BayK8644 or (+)-BayK8644 encapsulated in chitosan nanoparticles, or the same amount of empty NPs injections were repeated at the +2, +4, +6, +8 days after the first injection. Mice were sacrificed when one of the major tumor diameters reached 2 cm.\nWT and Tmem176b^−/− animals were inoculated with EG7 tumors. Once tumors reached 25 mm^2, animals were i.t. injected with 70×10^−9 moles of (+)-BayK8644, NP-PEG-BayK8644 or eNP-PEG. Treatments were repeated every two days reaching a total of five injections. Mice were euthanized when the longer diameter reached tumors reached […]."}, "[1]": {"system": "L-type voltage-gated Ca2+ channels", "settings": "cited from earlier work"}, "murine cancer models": {"system": "murine cancer models", "settings": "cited from earlier work; for Tumor growth, preventive protocol: before tumor establishment"}, "[2]": {"settings": "mouse, in vivo; cited from earlier work"}}, "note": "“Also recorded” adds a separate entry of the source. Like-named read-outs stand apart in the source and are kept apart here.", "data": [{"compound": "COC(=O)C1=C(C)NC(C)=C([N+](=O)[O-])C1c1ccccc1C(F)(F)F", "note": "(single isomer, unassigned; (+)) [(+)-BayK8644]", "values": [{"measurement": "B3Z T cell activation by DCs loaded with OVA protein (cross-presentation)", "setting": "CD11c+ splenic DCs; 3 mg/ml soluble OVA 4 hours, 10 μM or 20 μM", "value": "significantly decreased their capacity to activate B3Z cells"}, {"measurement": "B3Z T cell activation by DCs loaded with OVA peptide SIINFEKL", "setting": "CD11c+ splenic DCs; SIINFEKL 45 minutes, 20 μM", "value": "did not inhibit activation of B3Z cells"}, {"measurement": "Mouse survival", "setting": "E.G7-OVA thymic lymphoma", "value": "failed"}, {"measurement": "Tumor growth", "setting": "E.G7-OVA thymic lymphoma", "value": "failed to control tumor growth"}, {"measurement": "Effect on L-type Ca++ channels", "setting": "[1]", "value": "inhibitor"}, {"measurement": "Tumor growth, preventive protocol", "setting": "murine cancer models", "value": "controlled tumor growth; also recorded: controlled its growth"}, {"measurement": "Tumor growth, preventive protocol", "setting": "murine cancer models; listed as BayK8644", "value": "controlled tumor growth"}, {"measurement": "Caspase-1 activation in the TDLN", "setting": "murine cancer models; i.p", "value": "increased Caspase-1 activation"}, {"measurement": "Tumor growth, therapeutic protocol", "setting": "murine cancer models; mice bearing established tumors", "value": "failed to do so"}, {"measurement": "Toxicities in mice", "setting": "[2]", "value": "not associated with toxicities"}]}, {"compound": "COC(=O)C1=C(C)NC(C)=C([N+](=O)[O-])C1c1ccccc1C(F)(F)F", "note": "(single isomer, unassigned; (-)) [(−)-BayK8644]", "values": [{"measurement": "Effect on L-type Ca++ channels", "setting": "[1]", "value": "agonists"}]}]}
